“Also recorded” adds a separate entry of the source.
Tests used:
Format in all cases: cell-based, human
[1] = system: RTP/Drg1 protein; experiment: Western blot of RTP/Drg1 protein in MDA-MB-231 cells; details: for levels of RTP/Drg1 protein: 20% oxygen, up to 72 h, 100 μM cobalt chloride, 30 mM Tiron or 100 μM DFO; for reduction in RTP/Drg1 protein levels (hypoxic up-regulation), densitometry: 1% oxygen + 30% CO, 24 h; for effect of CO on up-regulation of RTP/Drg1 protein induced by cobalt chloride, Tiron and DFO: hypoxic conditions with CO
Description: (§1) To determine whether hypoxia regulates the expression of certain genes (e.g., PAI-1, uPAR, RTP/Drg1) via an iron-containing heme protein, cells were cultured for up to 72 h at 20% oxygen in the presence or absence of either 100 μM cobalt chloride, or 30 mM sodium 4,5-dihydroxybenzene-1,3-disulfonate (Tiron), or 100 μM desferrioxamine mesylate (DFO) (Sigma Chemical CO., St. Louis, Mo.). Further confirmation of the role of a heme protein in hypoxic responses can be achieved by culturing cells under hypoxia in the presence of carbon monoxide, which maintains the heme protein in the oxy state and thereby blocks heme protein-mediated hypoxic responses. Thus, cells were also cultured for 24 h at 37° C. under hypoxic conditions in the presence of 30% carbon monoxide.
Western Blot Analysis. To examine levels of RTP/Drg1 protein, cells were lysed with buffer containing 40 mM HEPES pH 7.2, 100 mM NaCl, 20% glycerol, 0.1 mM EDTA pH 8.0, 0.2% Triton X-100 (polyoxyethylene (10) isooctylphenyl ether), 1 mM DTT, and 2 mM PMSF, and centrifuged briefly at 4° C. The supernatants were collected and stored at −80° C. until use. SDS-PAGE was performed and resolved proteins were transferred to Immobilon-P membranes (Millipore Corp., Bedford, Mass.) using a semi-dry transfer cell (Bio-Rad Laboratories, Mississauga, ON). Membranes were blocked by incubation overnight at 4° C. in a PBS-buffered solution containing 0.01% Tween 20 (polyoxyethylene(20) sorbitan monolaurate) (PBS-T) and 5% casein. The blots were then incubated with polyclonal rabbit anti-Drg1 antiserum followed by incubation with a peroxidase labeled goat anti-rabbit IgG secondary antibody (Vector Lab. Inc., Burlingame, Calif.). Antigen was detected by enhanced chemiluminescence (ECL, Amersham Canada Inc., Oakville, ON) and exposure of the membrane onto Dupont Reflection NEF film (Dupont Canada, Inc., Mississauga ON).

[2] = system: uPAR; experiment: uPAR expression by flow cytometry (mAb 3937) on HTR-8/SVneo cells; details: for effect on the inhibition by carbon monoxide of hypoxia-induced uPAR expression: compound in the medium, hypoxia + CO, two independent experiments
Description: as §1
Determination of uPAR expression by flow cytometry. For flow cytometry, cells were released from flasks by incubation in cold PBS containing 5 mM EDTA. One million cells were then incubated for 1 h, at 4° C., with either 10 μg/ml of mAb 3937, or control mouse IgG2a, used at the same concentration. Bound antibody was detected using FITC-conjugated goat anti-mouse immunoglobulin. Cells were then fixed with 2% paraformaldehyde in PBS prior to analysis using a Coulter Elite Flow Cytometer.

[3] = system: PAI-1 mRNA; experiment: Northern blot of PAI-1 mRNA in HTR-8/SVneo cells; details: for increase in PAI-1 mRNA (3.0-kb and 2.3-kb transcripts): 24 hours in the presence of compound
Description: as §1, with “Thus, cells were also cultured for 24 h at 37° C. under hypoxic conditions in the presence of 30% carbon monoxide.” left out
Northern Blot Analysis. Total RNA was isolated from cell lines as described above. Aliquots of 20 μg were denatured and subjected to electrophoresis in 1% agarose-formaldehyde gels (Sambrook, J., Fritsch, E. F., and Maniatis, T. Molecular Cloning: A Laboratory Manual, Cold Spring Harbor Laboratory, Cold Spring Harbor, N.Y. (1989)). RNA was transferred to nylon membranes (Micron Separations, Inc., Westboro, Mass.). After prehybridization at 42° C. for 2-3 h in 50% formamide, 5×Denhardt's solution, 0.5% sodium dodecyl sulfate (SDS), 6×SSC (1×SSC: 0.15M NaCl, 15 mM sodium citrate, pH 7.0), and 100 μg/mL denatured salmon sperm DNA, membranes were hybridized for a period of time of overnight (˜18 h) to about 72 h at 42° C. with a cDNA probe (e.g., RTP/Drg1, PAI-1 (PAI-1 cDNA provided by Dr. Keith McCrae, Temple University School of Medicine, Philadelphia, Pa.), uPAR (Higazi A, et al., J Biol Chem 266:12752, (1995)) pre-labeled with [^32P]-dCTP using a Pharmacia Oligolabelling kit (Pharmacia Biotech, Piscataway, N.J.). The hybridization solution contained 6×SSC, 0.5% SDS, 100 μg/mL denatured salmon sperm DNA, 50% formamide and cDNA probe. […] Bands on radiographic film were analyzed using a SigmaGel gel analysis software package (Jandel Scientific Software, San Rafael, Calif.). […]

[4] = system: uPAR; experiment: Binding of [125I]-prourokinase to HTR-8/SVneo cells (uPAR expression); details: for Kd: Kd of [125I]-prourokinase on cells cultured with compound, read-out: Kd (nM) ± SEM; for increase in the expression of uPAR: flow cytometric and radioligand binding studies; for Bmax (sites/cell) ± SEM: [125I]-prourokinase binding to cells cultured with compound
Description: Determination of uPAR expression by urokinase binding analysis. Measurement of uPAR expression by ligand binding analysis was performed using [^125I]-prourokinase as the ligand, as described (Zini J M, et al., Blood 79:2917 (1992)). Prourokinase was radiolabeled with ^125I, using Iodobeads, to a specific radioactivity of at least 10^6 cpm/μg. Cells were then chilled to 4° C., washed with cold PBS containing 1% BSA, and incubated for 2 h with increasing concentrations of[^125I]-prourokinase in the absence (to determine total binding) or presence (to determine non-specific binding) of a 100-fold molar excess of unlabeled prourokinase. Specific binding was defined as the difference between total and non-specific binding, and analyzed by non-linear curve fitting methods (least squares method) using the Kaliedograph software program (Synergy Software, Reading, Pa.).

| SMILES | levels of RTP/Drg1 protein [1] | effect on the inhibition by carbon monoxide of hypoxia-induced uPAR expression [2] | increase in PAI-1 mRNA (3.0-kb and 2.3-kb transcripts) [3] | Kd [4] [nM] | increase in the expression of uPAR ([4]; Tiron) [fold] | Bmax (sites/cell) ± SEM [4] | reduction in RTP/Drg1 protein levels (hypoxic up-regulation), densitometry [1] | reduction in RTP/Drg1 protein levels (hypoxic up-regulation), densitometry ([1]; listed as CO) [%] | effect of CO on up-regulation of RTP/Drg1 protein induced by cobalt chloride, Tiron and DFO [1] | effect of CO on up-regulation of RTP/Drg1 protein induced by cobalt chloride, Tiron and DFO ([1]; listed as CO) | inhibition of hypoxia-induced expression of uPAR ([2]; 1% O2 + 20% carbon monoxide, 24 h, flow cytometry) [%] | effect on hypoxia-mediated increase in PAI-1 mRNA levels ([3]; 1% oxygen + 20% carbon monoxide, 24 hours) | increase in the expression of uPAR ([4]; cobalt chloride) [%] |
| --- | --- | --- | --- | --- | --- | --- | --- | --- | --- | --- | --- | --- | --- |
| O=S(=O)([O-])c1cc(O)c(O)c(S(=O)(=O)[O-])c1.[Na+].[Na+] [Tiron, sodium 4,5-dihydroxybenzene-1,3-disulfonate] | time-dependent increases in RTP/Drg1 protein | completely prevented | substantial increase | 8.08 ± 1.11 | 3 | 623,213 ± 102,360 sites/cell | – | – | – | – | – | – | – |
| [C-]#[O+] [carbon monoxide] | – | – | – | – | – | – | abrogated | 57 | did not inhibit | unable to inhibit | 56 | prevented most of the hypoxia-mediated increase in PAI-1 mRNA levels; also recorded: abolished the effect of hypoxia on PAI-1 mRNA levels | – |
| [Cl][Co][Cl] [cobalt chloride] | time-dependent increases in RTP/Drg1 protein | completely prevented | about 2 fold | 3.58 ± 0.69 | – | 285,711 ± 38,324 sites/cell | – | – | – | – | – | – | 28 |

From US6376169B1, “Method for diagnosing a vascular condition” (Queens University at Kingston, priority 1998, dated 2002)
